Type in all cases: cell-based
Test [1] deals with TPC-1 cells. Description: Annexin V-FITC/PI apoptosis assay by flow cytometry. To be noted: for total apoptotic cells: 20 μM, 24 h, untreated cells 10%; for viability at 20 µM: Homo sapiens, TPC1, 24 h, untreated cells 87%, read-out: viable cells. As for the experimental part: (§1) To determine whether the two studied coumarins 2k and 2h, induce cell death through apoptosis or necrosis, we performed double staining with fluorescent Annexin V-FITC/propidium iodide (PI) apoptosis detection kit in TPC-1 and Nthy-ori-3-1 as control cells. This assay is based on the ability of Annexin to recognize phosphatidylserine (PS), a membrane phospholipid exposed on the cell surface of apoptotic cells, while PI is able to bind the DNA of necrotic cells. Thanks to this combination, […] cell populations are obtained: cells negative for Annexin V-FITC and PI indicate live cells, Annexin V-FITC-positive/PI-negative and Annexin V-FITC-positive/PI-positive indicate early and late apoptotic cells, while cells negative for Annexin V-FITC and PI-positive are necrotic.
(§2) To investigate cell death induced by coumarins treatment, a flow cytometric analysis using the cell apoptosis kit Annexin V/propidium iodide (PI) double staining uptake (Life Technologies, Monza, Italy) was employed. Control and PTC-derived cells, at the density of 5 × 10^4 cells/mL, were seeded in 6-well plates (Corning) with complete DMEM/F12. First, the cells were treated with 20 µM of coumarins for 24 h. Cells were washed once with PBS 1X and stained according to the kit’s protocol. Stained cells were then analyzed by flow cytometry, measuring the fluorescence emission at 530 and 620 nm using a 488 nm excitation laser (MoFloAstrios EQ, Beckman Coulter). Cell apoptosis was analyzed using Software Summit Version 6.3.1.1, Beckman Coulter.
A general note: Flow cytometry measures light scatter and fluorescence of single cells or particles in a stream.

In test [2] the test system is Nthy-ori-3-1 normal thyroid cells. The description is as above. The settings on record: 20 μM, 24 h. Here is the method: as §1, §2
In test [3] the test system is Nthy-ori-3-1 cells. Description: Cell cycle analysis by flow cytometry (PI/RNase staining). The settings on record: control cells (Nthy-ori-3-1); 20 µM, 24 h.
Test [4] deals with TPC-1 cells. The experiment in a line: Intracellular ROS production (H2-DCF-DA probe). The settings on record: 20 and 100 μM, 30 to 120 min. As for the experimental part: (§3) It has been reported that coumarins and their derivatives are able to regulate the reactive oxygen species (ROS). For example, esculetin induces cytotoxicity in pancreatic cancer cells decreasing ROS and protein levels of the ROS-dependent transcription factor NF-κB [49]. On the other end, coumarins induce the generation and accumulation of ROS in cancer cells causing cell cycle arrest and apoptotic cell death. […] Conversely, 2h produces an antiproliferative response in TPC-1 cells by scavenging ROS. In an attempt of a better understanding of the results, such compounds were explored from an electrochemical point of view by means of cyclic voltammetry in anhydrous acetonitrile.
(§4) PTC-derived and control cells were seeded in 96-well plates (7.5 × 10^3/mL) to detect intracellular ROS production and grown for 24 h. Cells were then washed with PBS 1X solution and incubated for 30 min with 2′,7′-dichlorofluorescein diacetate probe (H2-DCF-DA) (Merck, Milan, Italy) (10 μM), as previously described. […] After 1 h of incubation, excess H2-DCF-DA was removed and replaced with PBS, and then ROS levels were measured by using a microplate reader (Infinite 200, Tecan, Salzburg, Austria) at a controlled temperature of 37 °C. The measurement was performed using an excitation of 490 nm and an emission of 520 nm. ROS production was evaluated for 2 h and monitored, taking readings at intervals of 5 min.

Test [5] has as its system Nthy-ori-3-1 cells. Description: Intracellular ROS production (H2-DCF-DA probe). The settings on record: only with 100 μM. As for the experimental part: as §3, §4
Test [6] has as its system TPC-1 cells. The experiment in a line: Cell cycle analysis by flow cytometry (PI/RNase staining). To be noted: 20 µM, 24 h, compared with untreated cells. As for the experimental part:
Among the potential mechanisms involved in the treatment of cancer, there is the arrest of the cell cycle. To detect whether the cytotoxicity of coumarins 2k and 2h resulted from cell cycle progression, the effects on the cell cycle of TPC-1 cells were analyzed by flow cytometry after labeling with PI (propidium iodide)/RNase Staining Buffer detection kit. […] According to apoptosis results, the cell cycle arrest could be responsible for the cytotoxicity in cancer cells. In the present study, it was observed that coumarin 2k determined cell arrest of TPC-1 cells in the G2/M phase, indicating the apoptotic mode of cell death and inhibition of DNA synthesis (S phase reduction). This finding is consistent with previous investigations reporting that coumarins able to induce cytotoxicity by inducing G2/M and S phases arrest in different cancer cell lines.
The cells were seeded (5 × 10^4 cells/mL) in six-well plates (Corning, Tewksbury, MA, USA). After 24 h, they were treated with coumarins (20 µM) for 24 h. Cell cycle analysis was performed by using the Invitrogen™ FxCycle™ PI/RNase Staining Solution (according to the manufacturer’s instructions, Thermo Fisher Scientific, Waltham, MA, USA), and then the DNA content was evaluated by flow cytometry (MoFloAstrios EQ, Beckman Coulter, Brea, CA, USA). The analysis of cell cycle phase distribution was accomplished via Kaluza Flow Cytometry Analysis Software (Software Version 1.2, Beckman Coulter) by setting 3 gates in each single parameter histogram: G0/G1, S, and G2/M.

Each structure is given as a SMILES string.

This is an account of results in PMC9786284, “Synthesis and Antiproliferative Effect of Halogenated Coumarin Derivatives” (Molecules, 2022).

Turning to `N#Cc1cc2cc(Br)cc(Br)c2oc1=O` [2h, 6,8-dibromo-2-oxo-2H-chromene-3-carbonitrile], in the test with TPC-1 cells [1], the total apoptotic cells is recorded as 18% and the viability at 20 µM came to 77.7%. Besides, in test [2], the induction of apoptosis entry is “No significant induction of apoptosis”. The “effect on the cell cycle” value in the test with Nthy-ori-3-1 cells [3] is reported as “No effect on the cell cycle”. In addition, the ROS generation entry in the test with TPC-1 cells [4] was “decreased ROS generation”. In the test on Nthy-ori-3-1 cells [5], the “effect on ROS” value is listed as “antioxidant”. Also, in the test on TPC-1 cells [6], the “effect on G2/M phase cell population” value is given as “same trend”.

As for `N#Cc1cc2cc(I)cc(I)c2oc1=O` [2k, 6,8-diiodo-2-oxo-2H-chromene-3-carbonitrile], in the test on TPC-1 cells [1], the total apoptotic cells is on record as 34% and the viability at 20 µM came to 62%. The induction of apoptosis entry in test [2] is listed as “No significant induction of apoptosis”. Besides, in the test with Nthy-ori-3-1 cells [3], the “effect on the cell cycle” value is listed as “No effect on the cell cycle”. For the same compound, the ROS generation entry in the test on TPC-1 cells [4] is “significant increase in ROS generation”. The “effect on ROS” value with Nthy-ori-3-1 cells [5] is given as “pro-oxidant”. Moreover, in the test with TPC-1 cells [6], the “effect on G2/M phase cell population” value was “increase in TPC-1 cells in the G2/M phase” and the “effect on S phase cell population” value was “decreases the cell population in the S phase”.
